# Assay results from US20160039852A1, “THERAPEUTIC USES OF BISPHOSPHONATES” (THE UNIVERSITY OF SHEFFIELD, priority 2013, published 2016).
# Key:
# unprenylated Rap1A = assay: Western blot of unprenylated Rap1A in hMSC; type: cell-based, human; conditions: hMSC exposed to increasing amounts of Zol
# Method: (§1) Three times 10^6 hMSC were lysed in mammalian cell lysis buffer (Mammalian cell lysis kit, Sigma-Aldrich, Dorset, UK) containing 250 mM Tris-5 mM EDTA, 750 mM sodium chloride, 0.5% sodium dodecyl sulphate, 2.5% deoxycholic acid and 5% Igepal supplemented with 10 μl of Proteinase inhibitors cocktail (Sigma-Aldrich, Dorset, UK) containing 4-(2-aminoethyl) benzenesulfonyl fluoride (AEBSF), pepstatin A, bestatin, leupeptin, aprotinin and trans-epoxysuccinyl-L-leucyl-amido(4-guanidino)-butane (E-64) according to manufacturer instruction. Phosphatase inhibitor cocktail (Sigma) was also added when preparing lysates for the detection of AKT, pAKT, P70S6K, and p-P70S6K.
# Protein lysates (50 μg) were diluted in equal volume of 2× Laemmli buffer (Gibco) containing Dithiothreitol (DTT, Sigma,UK). The samples were heated at 95° C. for 5 minutes and loaded on a 12% Tris-glycine gel. […] Detection was carried out using enhanced chemi-luminescence plus ECL reaction kit (GE Healthcare, Buckinghamshire, UK) and quantification of protein expression was carried out using image J software.
# (FPPS) enzyme in the mevalonate pathway and thereby reducing prenylation of small GTPases, such as Rap, Rac, Rho, Rheb (FIG. 3A). […] To this end, levels of unprenylated Rap1A were measured in hMSC exposed to increasing amounts of Zol.
# mTOR pathway = assay: Western blot of mTOR pathway effectors in hMSC; type: cell-based, human
# Method: as §1
# Protein lysates (50 μg) were diluted in equal volume of 2× Laemmli buffer (Gibco) containing Dithiothreitol (DTT, Sigma,UK). The samples were heated at 95° C. for 5 minutes and loaded on a 12% Tris-glycine gel. After electro-blotting, membranes were blocked with 5% Bovine serum albumin (BSA) in 0.1% Tween 20 in PBS (PBS-T) for detection of glyceraldehyde-3-phosphate dehydrogenase (GAPDH) and 5% dry milk in PBS-T for detection of unprenylated RAP1A (Santacruz Biotechnology, Santa Cruz, USA). In case of P-AKT, P-70S6K membranes were blocked with 5%BSA in 1× tris buffered saline and 0.1% tween-20 (TBS-T), where for AKT and P70S6K membranes were blocked with 5% dry milk in TBS-T. All membranes were blocked for 2 hours at room temperature. The antibody sc1482 for the detection of RAP1A (Santacruz, USA) was diluted in TBS-T at 1:1000. Antibodies for the detection of AKT, P-AKT, P-70S6K AND PP70S6K, (Cell Signalling Technologies, USA) were diluted at 1:1000. GAPDH antibody (Abcam, Cambridge) was diluted at 1:30000. […] Detection was carried out using enhanced chemi-luminescence plus ECL reaction kit (GE Healthcare, Buckinghamshire, UK) and quantification of protein expression was carried out using image J software.
# To test this, the inventors assessed the phosphorylation state of two effectors downstream of TORC1 and TORC2, p-P70S6K and pAKT (Ser473) respectively (FIG. 7A), in hMSC in presence or absence of Zol. […]
# [1] = system: human mesenchymal stem cells (hMSC); assay: Expression of osteogenic and adipogenic differentiation markers in hMSC; type: cell-based; conditions: CBFA-1, OPN, ALP, OC, LPL, PPAR-γ normalised to L-32; 14 days supplements
# murine tissues = assay: Immuno-staining of γH2AX in murine tissue following irradiation; type: in vivo, C57BL6/J mice; conditions: 3Gy irradiation, Zol 125 μg/kg i.p. for 3 days, 12 h post irradiation
# Source text: Cells were viewed using in an Inverted Zeiss LSM 510 NLO microscope equipped with Argon (Ar) laser (488 nm) 30 mW to image the fluorescent marker FITC and UV lamp to image DAPI stained nuclei.
# [2] = system: murine multiple myeloma line, 5TGM1; assay: γH2AX DNA damage foci in 5TGM1 multiple myeloma line after irradiation; type: cell-based; conditions: irradiated in presence versus absence of Zol, 4 h after irradiation, n=3
# [3] = hMSC exposed to Zol (1 μM) for 72 h, n=3
smiles,measurement,setting,value
O=P(O)(O)C(O)(Cn1ccnc1)P(=O)(O)O [Zoledronate],expression of unprenylated Rap1A,unprenylated Rap1A,increased expression
same,"mTOR signaling (p-mTOR, p-P70S6K, p-AKT, p-FOXO3A), FIG. 12",mTOR pathway; hMSC exposed to Zol,inhibition of mTOR signaling
same,p-P70S6K,mTOR pathway; [3],significant decrease
same,pAKT (Ser473),mTOR pathway; [3],significant decrease
same,expression of osteogenic and adipogenic differentiation markers,[1],increased
same,levels of DNA damage (γH2AX foci) in murine tissues,murine tissues,decreased levels of DNA damage
same,number of γH2AX DNA damage foci,[2],No significant difference
